Reference: patent publication US20260250318A1, “COMPOSITIONS AND METHODS FOR CROSSING THE BLOOD BRAIN BARRIER” (VOYAGER THERAPEUTICS, INC., priority 2022, published 2026)

Key:
Settings in all cases: synthetic library passage 3, intravenous, relative to wild-type AAV9
[1] = tested on: brain, spinal cord, and DRG of the NHPs; assay: NGS fold enrichment of synthetic library (passage 3) in NHPs, first cross-species screen; assay type: in vivo, cynomolgus macaques (Macaca fascicularis)
Procedure: (§1) After creation of the synthetic library with the sub-selected variants, the synthetic library was screened (passage 3) in two NHPs (2-4 years of age) and two strains of mice, BALB/c (n=3, 6-8 weeks of age) and C57Bl/6 mice (n=3, 6-8 weeks of age), in a first cross-species evolution screen. The animals were injected intravenously with the synthetic library. After a period in vivo, (e.g., 28-days) RNA was extracted from nervous tissue, e.g., brain, spinal cord, and DRG of the NHPs and the brains of mice. Following RNA recovery and RT-PCR amplification, a systematic NGS enrichment analysis was performed, and the peptides comprised within the variants were identified and the capsid enrichment ratio for each variant compared to the wild-type AAV9 control was calculated (fold enrichment relative to wild-type AAV9) (Table 9). […] All animals were dosed intravenously at […] across the screen.

brain [2] = assay: NGS fold enrichment of synthetic library (passage 3) in C57Bl/6 mice, first cross-species screen; assay type: in vivo
Procedure: as §1

brain [3] = assay: NGS fold enrichment of synthetic library (passage 3) in BALB/c mice, first cross-species screen; assay type: in vivo
Procedure: as §1

[4] = RNA from spinal cord of NHPs, NGS
[5] = RNA from brain of C57Bl/6 mice, NGS
[6] = RNA from brain of BALB/c mice, NGS

Sequence | Fold enrichment over AAV9 in the brain of NHPs ([1]; RNA NGS, brain of NHPs) [fold] | Fold enrichment over AAV9 in the spinal cord of NHPs ([1]; RNA NGS, spinal cord of NHPs) [fold] | Fold enrichment over AAV9 in the brain of Mice (C57Bl/6) (brain [2]; RNA NGS, brain of C57Bl/6 mice) [fold] | Fold enrichment over AAV9 in the brain of Mice (BALB/c) (brain [3]; RNA NGS, brain of BALB/c mice) [fold] | Fold enrichment over AAV9 in the brain of NHPs ([1]; RNA from brain of NHPs, NGS) [fold] | Fold enrichment over AAV9 in the spinal cord of NHPs [1, 4] [fold] | Fold enrichment over AAV9 in the brain of Mice (C57Bl/6) (brain [2]; [5]) [fold] | Fold enrichment over AAV9 in the brain of Mice (BALB/c) (brain [3]; [6]) [fold]
GARIQNASGQKQQT | 2.300 | 2.103 | 1.220 | 1.039 | – | – | – | –
GASHMSISGQNQQT | – | – | – | – | 1.284 | 0.462 | 0.404 | 0.374
GASSLATSGQNQQT | – | – | – | – | 1.337 | 0.703 | 0.423 | 0.217
GATLQVHSGQNQQT | 2.122 | 2.219 | 0.623 | 0.545 | – | – | – | –
GAVGHSYSGQNQQT | 1.706 | 0.808 | 0.306 | 0.536 | – | – | – | –
GAYGMVSSGQNQQT | 1.518 | 3.469 | 0.732 | 0.773 | – | – | – | –
GCTTRLNSGQNQQT | – | – | – | – | 1.276 | 0.000 | 0.184 | 0.618
GDAGVRSSGQNQQT | 2.068 | 3.918 | 1.033 | 1.193 | – | – | – | –
GDMTRSSSGQNQQT | 1.075 | 0.802 | 1.145 | 1.038 | – | – | – | –
GDSSLRHSGQNQQT | 2.194 | 0.000 | 0.662 | 0.412 | – | – | – | –
GDSSSRISGQNQQT | – | – | – | – | 1.151 | 3.787 | 0.916 | 0.348
GEKAVTSSGQNQQT | – | – | – | – | 1.402 | 0.998 | 0.558 | 0.327
GERAFPTSGQNQQT | 1.775 | 6.515 | 0.972 | 0.362 | – | – | – | –
GERHTVLSGQNQQT | 3.289 | 3.008 | 1.027 | 0.607 | – | – | – | –
GESRAVLSGQNQQT | 1.476 | 0.938 | 0.789 | 0.368 | – | – | – | –
